Where two headings read alike, the source gives them in different places.
Columns and labels:
[1] = system: transplanted human mammary carcinoma; details: cited from earlier work
[2] = system: ARH-77 cells, a human multiple myeloma cell line; test: MTT cell survival assay in ARH-77 multiple myeloma cells
Protocol: β-lapachone was dissolved at 20 mM concentration in dimethyl sulfoxide (DMSO), aliquoted, and stored at −20° C. for cell culture use. Imatinib was dissolved at 100 mM concentration in dimethyl sulfoxide (DMSO).
Each well was treated with β-lapachone and/or imatinib. Each condition was run in triplicate. […] The plates were read using a plate reader at 570 nm.

[3] = system: K562 cells (human chronic myelogenous leukemia cell line), imatinib-resistant; test: MTT cell survival assay in K562 CML cells, imatinib-resistant line; type: cell-based; details: 48 hours; for % Viability: Imatinib 0 μM
Protocol: (§1) K562 cells (a human chronic myelogenous leukemia (CML) cell line), were suspended in RPMI 1640 Medium (Life Technologies Inc.), supplemented with 10% FCS, 2 mM L-glutamine in 96-well plates (2×10^4 cells per well). Both an imatinib-sensitive and an imatinib-resistant cell line were used. Each well was treated with β-lapachone and/or imatinib. Each condition was run in triplicate. After incubation for 48 hours, cell survival was assayed using MTT to determine cell survival. The plates were read using a plate reader at 570 nm.

[4] = system: K562 cells (human chronic myelogenous leukemia cell line), imatinib-sensitive; test: MTT cell survival assay in K562 CML cells, imatinib-sensitive line
Protocol: as §1

[5] = cited from earlier work

In the case of `O=CN/C=C/c1cc(O)ccc1O` [erbstatin], the tumor growth ([1]; another carcinoma which does not express the EGF receptor) is given as “without effect” and the tumor growth ([1]; carcinoma which expresses epidermal growth factor receptor tyrosine kinase, athymic nude mice) is given as “selectively attenuates the growth”.
In the case of `Cc1ccc(NC(=O)c2ccc(CN3CCN(C)CC3)cc2)cc1Nc1nccc(-c2cccnc2)n1` [imatinib, Imatinib], the “% Viability” value ([2]; STI571 1 μM, Co-501 0 μM, 24 hours) is reported as 66.3%, the “% Viability” value ([2]; STI571 2 μM, Co-501 0 μM, 24 hours) is reported as 80.0% and the “% Viability” value ([2]; STI571 5 μM, Co-501 0 μM, 24 hours) is reported as 85.7%. The “% Viability” value ([2]; STI571 10 μM, Co-501 0 μM, 24 hours) was 91%, the “% Viability” value ([2]; STI571 20 μM, Co-501 0 μM, 24 hours) was 47% and the “% Viability” value ([2]; STI571 20 μM, Co-501 0 μM, 24 hours, listed as STI571) was 46.7%. The “% Viability” value ([2]; STI571 50 μM, Co-501 0 μM, 24 hours) was 10.0%, the viability at 1 µM ([3]; Homo sapiens, K562, Imatinib 1 μM, B-lapachon 0 μM) was 94.7% and the viability at 5 µM ([3]; Homo sapiens, K562, Imatinib 5 μM, B-lapachon 0 μM) was 57.3%. For the same compound, the viability at 10 µM ([3]; Homo sapiens, K562, Imatinib 10 μM, B-lapachon 0 μM) was 22.5%, the viability at 20 µM ([3]; Homo sapiens, K562, Imatinib 20 μM, B-lapachon 0 μM) was 11.5% and the viability at 40 µM ([3]; Homo sapiens, K562, Imatinib 40 μM, B-lapachon 0 μM) was 4.9%. The “sensitivity to imatinib alone, compared with imatinib-sensitive line” value ([3]; imatinib alone) was “less sensitivity”, the viability at 0.5 µM ([4]; Homo sapiens, K562, 48 h) was 57.2% and the viability at 1 µM ([4]; Homo sapiens, K562, 48 h) was 36.6%. For the same compound, the viability at 5 µM ([4]; Homo sapiens, K562, 48 h) was 20.9%, the viability at 10 µM ([4]; Homo sapiens, K562, 48 h) was 13.9% and the viability at 20 µM ([4]; Homo sapiens, K562, 48 h) was 0.9%.
In the case of `CC1(C)CCC2=C(O1)c1ccccc1C(=O)C2=O` [β-lapachone, 3,4-dihydro-2,2-dimethyl-2H-naphtho[1,2-b]pyran-5,6-dione], the water solubility [5] is given as “water insolubility”, the viability at 1 µM ([2]; Homo sapiens, ARH-77, 24 h, STI571 0 μM, Co-501 1 μM, 24 hours) is given as 91% and the viability at 2 µM ([2]; Homo sapiens, ARH-77, 24 h, STI571 0 μM, Co-501 2 μM, 24 hours) is given as 34%. For the same compound, the viability at 4 µM ([2]; Homo sapiens, ARH-77, 24 h, STI571 0 μM, Co-501 4 μM, 24 hours) was 40%, the “% Viability” value ([2]; STI571 0 μM, Co-501 2 μM, 24 hours) was 34.3% and the “% Viability” value ([2]; human, 24 h, 1 μM) was 91.4%. The “% Viability” value ([3]; B-lapachon 0.5 μM) was 80.5%, the “% Viability” value ([3]; B-lapachon 1 μM) was 79% and the “% Viability” value ([3]; B-lapachon 2 μM) was 45%. For the same compound, the “% Viability” value ([3]; B-lapachon 4 μM) was 0.56%, the “% Viability” value ([4]; Imatinib 0 μM, B-lapachone 1 μM, 48 hours) was 36.2% and the “% Viability” value ([4]; Imatinib 0 μM, B-lapachone 2 μM, 48 hours) was 11.9%. The “% Viability” value ([4]; Imatinib 0 μM, B-lapachone 4 μM, 48 hours) was 1.0% and the “% Viability” value ([4]; human, 48 h, 0.5 μM) was 58.3%.

Reference: US20050119352A1, “Method of treating cancers” (priority 2002, published 2005)
